In one test the test system is PANC1 PDAC cells. In words: MTT-based cell viability assay. Conditions: 25 μg/mL. As to the method:
(§1) Using 96-well plates with approximately 2000 cells per well, an MTT-based metabolic activity assay was performed. The cells were treated with agents and incubated for two days. On the fourth day, they were stained with 0.5 mg/mL thiazolyl blue tetrazolium bromide (M5655, Sigma). The optical density, used to assess metabolic activity, was measured at 562 nm. For the EdU-based proliferation activity assay, the cells were seeded in 96-well plates at about 1000 cells per well. A fluorescence-based cell proliferation kit (Click-iT™, EdU Alexa Fluor™ 488 Imaging Kit; Thermo Fisher, Waltham, MA, USA) was used according to the manufacturer’s instructions.

The subject of test [1] is TT2 osteosarcoma cell line. In words: MTT-based cell viability assay. Particulars: TT2; 25 μg/mL. The protocol: as §1
For test [2], the system named is 4T1.2 mammary tumor cells. In words: Scratch-based motility assay. The format is cell-based, mouse. Conditions: 25 μg/mL. The protocol:
To evaluate the two-dimensional motility of cancer cells, a wound-healing scratch assay was utilized, and the change in the scratch area was determined. On day 1, ~3 × 10^5 cells were seeded in 12-well plates, and, on day 2, a scratch was made on the cell layer, with the tip of a plastic pipette. Using a light microscope (40×), cell-free zones were imaged after 0 h and 24 h, and the alteration in their areas was quantified by Image J (Version 1.54 f).

The subject of a further test is MDA-MB-231 cells. In words: Transwell invasion assay. The format is cell-based, human. Conditions: 25 µg/mL. The protocol:
(§2) The invasion capacity of cancer cells in response to ACPs was assessed using 8 µm pore transwell chambers (353182, Thermo Fisher) in a 12-well plate. The chambers were coated with 300 µL Matrigel (100 µg/mL) and filled with 500 µL of the serum-free medium. After washing the chamber three times with the serum-free medium, approximately 7 × 10^4 cells in 300 µL serum-free DMEM were placed in the upper chamber, while 800 µL medium was added to the lower chamber. Cells that migrated to the lower side of the membrane were fixed with methanol and stained with crystal violet. Five random images were captured with an inverted optical microscope at 100× magnification, and the average number of stained cells, representing the invasion capacity, was determined.

The subject of another test is MDA-MB-436 cells. The test can be described thus: Transwell invasion assay. Conditions: 25 µg/mL. The format is cell-based, human. As to the method:
as §2

Test [3] deals with MDA-MB-231 breast cancer cells. In words: Western blot analysis. The format is cell-based, human. Particulars: 25 µg/mL. The protocol:
(§3) Cells were lysed using a RIPA lysis buffer (sc-24948, Santa Cruz Biotech, Dallas, TX, USA) containing protease inhibitors (PIA32963, Thermo Fisher) and phosphatase inhibitors (2006643, Cal-biochem, Billerica, MA, USA). The proteins were separated on 10–15% SDS gels (Bio-Rad Laboratories, Hercules, CA, USA) and transferred to a polyvinylidene difluoride membrane (IPVH00010, Millipore, Billerica, MA, USA). The membrane was incubated with primary antibodies, followed by incubation with secondary antibodies (7074S/7076S, Cell Signaling, Danvers, MA, USA). The antibodies used included those against Snail, p-Src, Src, cleaved caspase 3, caspase 3, RANKL, Cdc42, Col1 and RhoA (Cell Signaling), ALP (Santa Cruz Biotech), OCN (Abcam, Boston, MA, USA), with β-actin (Sigma) as a control. The protein levels were detected using SuperSignal West Femto Maximum Sensitivity Substrate (PI34096, Thermo Fisher) and a luminescent image analyzer (LAS-3000, Fuji Film, Tokyo, Japan).
A general note: A western blot detects proteins with antibodies after separation by electrophoresis.

The test system of test [4] is MDA-MB-436 breast cancer cells. The test can be described thus: Western blot analysis. Particulars: 25 µg/mL. The format is cell-based, human. The protocol:
as §3

On to TDYMVGSYGPR [P18], for which the MTT-based viability result (in the test on PANC1 PDAC cells; in test [1]) was “significantly decreased” each time. The scratch-based mobility entry in test [2] is listed as “consistently reduced”. For the same sequence, the figures for the transwell invasion entry in the test on MDA-MB-231 cells and with MDA-MB-436 cells were “decreased” and “inhibited”, respectively. Also, the “levels of RhoA and Cdc42” value in test [3] and in test [4] was “slight upregulation” in each case. In addition, the “levels of cleaved caspase 3” value in test [3] and in test [4] was “increasing” each time. The “levels of p-Src and Snail” value in test [3] and in test [4] was “downregulated” in each case.

(Values after publication PMC11202002, “P18: Novel Anticancer Peptide from Induced Tumor-Suppressing Cells Targeting Breast Cancer and Bone Metastasis” (Cancers, 2024).)
